Test results reported in patent publication US20100166826A1, “BIODEGRADABLE INTRAVAGINAL DEVICES FOR DELIVERY OF THERAPEUTICS” (University of Uath Research Foundation, priority 2007, published 2010).

Experiment: release of TMC120 from degradable polyurethane (FIG. 5)
Assay type: physicochemical
Conditions: period of one month; from degradable polyurethane made from terathane-co-(caprolactone), 4,4′-methylenebis-cyclohexane diisocyanate and 1,4-butanediol

- release profile of TMC120: sustained release profile
SMILES: Cc1cc(C)c(Nc2ccnc(Nc3ccc(C#N)cc3)n2)c(C)c1 [TMC120, 4-[4-(mesitylamino)pyrimidin-2-ylamino)-benzonitrile]
